Source: patent publication US11116817B2, “Antimicrobial agents and compositions comprising the same” (THE CURATORS OF THE UNIVERSITY OF MISSOURI, priority 2017, dated 2021)
Like-named read-outs stand apart in the source and are kept apart here. Positions of bridges follow the written chain, without caps; N, C: chain ends. No end group written: not given here.

How the values were obtained:
[1] = system: P. aeruginosa; assay type: cell-based
Description: (§1) The minimum inhibitory concentrations (MICs) of CAMPs (SEQ ID NOs: 1, 2, 3, and 4) were determined according to the guidelines of the Clinical and Laboratory Standards Institute (CLSI). The Muller Hinton (MH) II broth used in MIC assay was supplemented with 20-25 mg/L of calcium and 10-12.5 mg/L of magnesium. In brief, peptides were two-fold serially diluted (2 to 256 μg/ml) in a 96-well microtiter plate (Nunc™, Thermo Fisher Scientific) and an equal volume (μl) of bacterial suspension was added to each well of the plate. The final bacterial concentration in the wells was 5×10^5 CFU/ml. […] All assays were conducted in triplicate.

[2] = system: S. aureus (ATCC 29213); assay type: cell-based
Description: as §1

[3] = system: methicillin-resistant S. pseudintermedius (MRSP); assay type: cell-based
Description: as §1

[4] = system: Gram-positive bacteria (S. aureus and MRSP strains); experiment: MIC assay, Example One, pooled over Gram-positive strains; assay type: cell-based, S. pseudintermedius; settings: mean over the Gram-positive strains of Table 2
Description: as §1
The Hemolytic Assay includes the following procedures. […] The supernatant was transferred to a 96-well flat-bottomed polystyrene plate (Thermo Fisher Scientific), and the amount of hemoglobin released into the supernatant was determined by measuring the absorbance with a spectrophotometer at 540 nm. Hemolytic activity was expressed as the percentage of hemolysis and calculated using the following equation: hemolysis (%)=(As−A0)/(A100−A0)×100, where As is the absorbance of the sample, A100 is the absorbance of completely lysed RBCs in 0.2% Triton X-100, and A0 is the absorbance in the complete absence of hemolysis (PBS treatment). […] Therapeutic index (T.I.) was calculated according to a previously published formula: T.I.=MHC/MICGM. […]

[5] = system: P. aeruginosa (ATCC 27853); assay type: cell-based
Description: (§2) The minimum inhibitory concentrations (MIC) of AvBDs (SEQ ID NOs: 5, 6, 7, 8, 9, 10, 11, 12, and 13) were determined under low salt and standard conditions according to the guidelines of the Clinical and Laboratory Standards Institute (CLSI). […] An equal volume […] of bacterial suspension was added to each well of the plate. The final bacterial concentration in the wells was 5×10^5 CFU/ml. […] To complement MIC-1s assays, the minimum bactericidal concentrations (MBC) were evaluated by sub-culturing the contents of the first two clear wells obtained in the MIC-1s assay onto LB agar plates. All assays were conducted in triplicate. The lowest peptide concentration inhibiting about, at least, or more than 99% of bacterial growth was defined as MBC-1s. The analogues were regarded as bactericidal when the MBC was determined to be no more than four times the MIC.

[6] = system: JAWSII cells; experiment: Cell cytotoxicity assay (MTT); assay type: cell-based, mouse; settings: 4, 16, 64, 256 μg/ml for 4, 12, 24, and 48 hour
Description: The Cell Cytotoxicity Assay includes the following procedures. Mouse immature dendritic cell line, JAWSII (ATCC CRL-11904™), was cultured in Alpha minimum essential medium with ribonucleosides, deoxyribonucleosides, 4 mM L-glutamine, 1 mM sodium pyruvate, and 5 ng/ml murine Granulocyte macrophage colony-stimulating factor (GM-CSF) then supplemented with 20% FBS, 100 U/ml penicillin, and 100 μg/ml streptomycin at 37° C. in humidified air with 5% CO2. CCR-2 transfected CHO-K1 cells were cultured in RPMI-1640 supplemented with 10% FBS, 2 mM L-glutamine, 100 units/ml penicillin and streptomycin, and 500 μg/ml G418 at 37° C. in humidified air with 5% CO2. The cytotoxicity of CAMPs (SEQ ID NOs: 1, 2, 3, and 4) to JASWII and CHO-K1 cells was determined using MTT (3-(4,5-dimethylthiazol-2-yl)-2,5-diphenyltetrazolium bromide, Thermo Fisher Scientific) cell proliferation assay. Cells (5×10^3 cells/well) in 96-well microtiter plates were treated with peptides at 64, 128, 256, and 512 μg/ml for 4, 12, 24, and 48 hours at 37° C. After treatment, 20 μl of 12 mM MTT solution was added to each well and the plate was incubated for 4 hours. […] The plates were read using a spectrophotometer at 540 nm. The viability of treated cells was expressed as the percentage of viability relative to the untreated control. […]

[7] = system: E. coli (ATCC 25922); assay type: cell-based
Description: as §2

[8] = system: S. aureus (ATCC 29213); assay type: cell-based; remark: listed apart in the source
Description: as §2

[9] = system: S. Typhimurium (ATCC 14028); assay type: cell-based
Description: as §2

[10] = system: CHO-K1 cells; experiment: Cell cytotoxicity assay (MTT); assay type: cell-based, hamster; settings: 4, 16, 64, 256 μg/ml for 4, 12, 24, and 48 hour
Description: The Cell Cytotoxicity Assay includes the following procedures. Mouse immature dendritic cell line, JAWSII (ATCC CRL-11904™), was cultured in Alpha minimum essential medium with ribonucleosides, deoxyribonucleosides, 4 mM L-glutamine, 1 mM sodium pyruvate, and 5 ng/ml murine Granulocyte macrophage colony-stimulating factor (GM-CSF) then supplemented with 20% FBS, 100 U/ml penicillin, and 100 μg/ml streptomycin at 37° C. in humidified air with 5% CO2. CCR-2 transfected CHO-K1 cells were cultured in RPMI-1640 supplemented with 10% FBS, 2 mM L-glutamine, 100 units/ml penicillin and streptomycin, and 500 μg/ml G418 at 37° C. in humidified air with 5% CO2. The cytotoxicity of CAMPs (SEQ ID NOs: 1, 2, 3, and 4) to JASWII and CHO-K1 cells was determined using MTT (3-(4,5-dimethylthiazol-2-yl)-2,5-diphenyltetrazolium bromide, Thermo Fisher Scientific) cell proliferation assay. Cells (5×10^3 cells/well) in 96-well microtiter plates were treated with peptides at 64, 128, 256, and 512 μg/ml for 4, 12, 24, and 48 hours at 37° C. After treatment, 20 μl of 12 mM MTT solution was added to each well and the plate was incubated for 4 hours. The medium in each well was replaced with 100 μl of dimethyl sulfoxide (DMSO, Sigma-Aldrich) to dissolve MTT crystals. The plates were read using a spectrophotometer at 540 nm. The viability of treated cells was expressed as the percentage of viability relative to the untreated control. The experiment was performed in triplicate.
(§3) Chicken macrophage cell lines MQ-NCSU and HD11 were maintained in RPMI-1640 media supplemented with 10% fetal bovine serum (FBS), 2% chicken serum, 100 U/ml penicillin and 100 μg/ml streptomycin (Sigma-Aldrich) at 37° C. in humidified air with 5% CO2. CHO-K1 cells were cultured in the same media without 2% chicken serum. For CCR2-transfected CHO-K1 cells, medium was supplemented with 500 μg/ml G418 was added (Sigma-Aldrich). Murine immature dendritic cell line JAWSII (ATCC CRL-11904™) was cultured in Alpha minimum essential medium containing 4 mM L-glutamine, 1 mM sodium pyruvate, 5 ng/ml murine Granulocyte macrophage colony-stimulating factor (GM-CSF), 20% FBS, 100 U/ml penicillin and 100 μg/ml streptomycin at 37° C. in humidified air with 5% CO2. The cell cytotoxicity was determined using the MTT (3-(4,5-dimethylthiazol-2-yl)-2,5-diphenyltetrazolium bromide cell proliferation assay according to the manufacturer's instruction (Thermo Fisher Scientific). Briefly, cells (5×10^3 cells/well) were seeded in 96-well tissue culture plates, incubated overnight and treated with the analogues at concentrations of 4, 16, 64 and 256 μg/ml for 4, 12, 24 and 48 hours at 37° C. After treatment, […] 12 mM MTT solution was added to each well. The plate was incubated for 4 hours and read at 540 nm. Viability was expressed as percentage of viable cells relative to the untreated control. The experiments were performed in triplicate.

[11] = system: chicken macrophage cell line MQ-NCSU; experiment: Cell cytotoxicity assay (MTT); assay type: cell-based; settings: 4, 16, 64, 256 μg/ml for 4, 12, 24, and 48 hour
Description: as §3, with “The experiments were performed in triplicate.” left out

[12] = system: chicken macrophage cell line HD11; experiment: Cell cytotoxicity assay (MTT); assay type: cell-based; settings: 4, 16, 64, 256 μg/ml for 4, 12, 24, and 48 hour
Description: as §3, with “The experiments were performed in triplicate.” left out

[13] = standard conditions, CLSI guidelines

In the case of “SPIHACRYQRGVCIPGPCRWPYYRVGSCGSGLKSCCVRNRWA (disulfide 6-35, 13-28, 18-36) [AvBD-6]”, the MIC ([1]; 24 h) was >256 µg/mL, the “MICAverage G−” value ([1]; mean over the Gram-negative (P. aeruginosa) strains of Table 2) was >256 µg/mL and the MIC [2] was 256 µg/mL. The MIC ([3]; S. pseudintermedius (13164006)) was >256 µg/mL, the MIC ([3]; S. pseudintermedius (13193006)) was >256 µg/mL and the MIC ([3]; S. pseudintermedius (13207007)) was >256 µg/mL. For the same sequence, the MIC ([3]; S. pseudintermedius (13228005)) was >256 µg/mL, the MIC ([3]; S. pseudintermedius (13267017)) was >256 µg/mL and the MIC ([3]; S. pseudintermedius (13269013)) was >256 µg/mL. For the same sequence, the “MICAverage G+” value [4] was ≥256 µg/mL and the MBS-Is ([5]; low salt condition (5 mM NaCl)) was 128 µg/mL.
In the case of “GPHSCNHQRGLCRVGNCNPGYYLAKYCFSPVILCCKPLSPTPTKT (disulfide 5-34, 12-27, 17-35) [AvBD-12/6]”, the “effect on cell viability” value [6] was “did not appear to have any effect on cell viability”, the MBC-Is ([7]; low salt condition (5 mM NaCl)) was 32 µg/mL and the MIC-Is ([7]; low salt condition (5 mM NaCl)) was 8 µg/mL. For the same sequence, the MIC [7, 13] was 256 µg/mL, the MBC-Is ([8]; low salt condition (5 mM NaCl)) was 256 µg/mL and the MIC-Is ([8]; low salt condition (5 mM NaCl)) was 256 µg/mL. It also gave an MIC [8, 13] of 256 µg/mL, an MBC-Is ([9]; low salt condition (5 mM NaCl)) of 64 µg/mL and an MIC-Is ([9]; low salt condition (5 mM NaCl)) of 16 µg/mL. For the same sequence, the MIC [9, 13] was >256 µg/mL, the MIC-Is ([5]; low salt condition (5 mM NaCl)) was 64 µg/mL and the MIC [5, 13] was >256 µg/mL. For the same sequence, the “effect on cell viability” value [10] was “did not appear to have any effect on cell viability”, the “effect on cell viability” value [11] was “did not appear to have any effect on cell viability” and the “effect on cell viability” value [12] was “did not appear to have any effect on cell viability”.
